The values that follow come from patent US10745356B2, “Compositions and methods for treating tuberculosis” (priority 2015, dated 2020).

In brackets after ≈: the same amount, converted by molar mass. Where only a bound is given, the exact number is not on record here.

One assay has as its system M. tuberculosis strains. Put plainly: Minimum Inhibitory Concentration (MIC) against M. tuberculosis strains, resazurin microtiter plate assay. It is filed as cell-based, Mycobacterium tuberculosis. As to conditions: Mycobacterium tuberculosis. In general terms: Alamar Blue is a resazurin reagent that responds to reducing activity.
What is called MIC90 is an inhibitory concentration at the 90% level, which refers to growth in some studies and to a panel of isolates in others. `Cc1cc2nccc(-c3ccccc3C(=O)O)c2c(C)c1-c1ccc(CN2CCOCC2)cc1` [Compound 57] showed an MIC90 of 40 µM (≈ 18.1 µg/mL).
In turn, `COc1cccc(-c2ccnc3cc(C)c(-c4ccc(CN5CCOCC5)cc4)c(C)c23)c1OC` [Compound 51] returned an MIC90 of over 40 µM.
Still for that read-out and setting: the same measure for `CNC(=O)c1cc(-c2ccc(Cl)cc2)c2c(C)c(-c3ccncc3)c(C)cc2n1` [Compound 67]: 40 µM (≈ 16.1 µg/mL); for `CNC(=O)c1cc(-c2ccccc2F)c2c(C)c(C3=CCNCC3)c(C)cc2n1` [Compound 86]: 20 µM (≈ 7.79 µg/mL); for `Cc1cc2nccc(-c3ccccc3Cl)c2c(C)c1-c1ccc(CN2CCOCC2)cc1` [Compound 48]: 0.3 µM (≈ 0.133 µg/mL).
Consider `Cc1cc2nccc(-c3ccnn3C)c2c(C)c1-c1ccc(CN2CCOCC2)cc1` [Compound 63], for which the MIC90 stood at 2.2 µM (≈ 0.908 µg/mL).
Same read-out and setting: the figure for `Cc1cc2nccc(-c3ccccc3)c2c(C)c1-c1ccc(CN2CCOCC2)cc1` [Compound 47] is 0.45 µM (≈ 0.184 µg/mL).
Take `Cc1cc2nccc(-c3ccccc3)c2c(C)c1-c1ccn(C)n1` [Compound 75]: the MIC90 was over 125 µM.
Still for that read-out and setting: the same measure for `CNC(=O)c1cc(N2CCCCC2)c2c(C)c(-c3ccncc3)c(C)cc2n1` [Compound 69]: 5 µM (≈ 1.87 µg/mL).
In turn, `Cc1cc2nccc(-c3ccccc3)c2c(C)c1-c1cnn(C)c1` [Compound 77] gave an MIC90 of 47 µM (≈ 14.7 µg/mL).
For the compound `Cc1cc2nccc(-c3cccnc3C#N)c2c(C)c1-c1ccc(CN2CCOCC2)cc1` [Compound 62], the MIC90 is 7.5 µM (≈ 3.26 µg/mL).

The same assay, now with this note: Mycobacterium tuberculosis, Table 1, C2 SAR with chlorophenyl; Middlebrook 7H9, 37° C. six days, resazurin fluorescence after 48 hours; read-out: MIC90.
Regarding `Cc1cc2nc(C(=O)NCC(C)(C)CO)cc(-c3ccccc3Cl)c2c(C)c1-c1ccncc1` [Compound 35], the MIC90 worked out at 1.6 µM (≈ 0.758 µg/mL).
Same read-out and setting: the figure for `Cc1cc2nc(C(=O)NCCO)cc(-c3ccccc3Cl)c2c(C)c1-c1ccncc1` [Compound 15] is 0.3 µM (≈ 0.13 µg/mL); for `Cc1cc2nc(C(=O)N[C@H]3CCCC[C@@H]3O)cc(-c3ccccc3Cl)c2c(C)c1-c1ccncc1` [Compound 23] it is 1.25 µM (≈ 0.608 µg/mL).
Still for that read-out and setting: the figure for `Cc1cc2nc(C(=O)N3CCNCC3)cc(-c3ccccc3Cl)c2c(C)c1-c1ccncc1` [Compound 30] is 10 µM (≈ 4.57 µg/mL); for `CNS(=O)(=O)c1cc(-c2ccccc2Cl)c2c(C)c(-c3ccncc3)c(C)cc2n1` [Compound 11] it is 10 µM (≈ 4.38 µg/mL); for `Cc1cc2nc(CCC(=O)N(C)C)cc(-c3ccccc3Cl)c2c(C)c1-c1ccncc1` [Compound 10] it is 20 µM (≈ 8.88 µg/mL).
Still for that read-out and setting: the same measure for `Cc1cc2nc(C(=O)NC3CCN(C)C3)cc(-c3ccccc3Cl)c2c(C)c1-c1ccncc1` (stereo not drawn) [Compound 25]: 1.25 µM (≈ 0.589 µg/mL); for `Cc1cc2nc(C(=O)NC(C)CCO)cc(-c3ccccc3Cl)c2c(C)c1-c1ccncc1` (stereo not drawn) [Compound 26]: 1.25 µM (≈ 0.575 µg/mL); for `Cc1cc2nc(C(=O)N3CCCC3)cc(-c3ccccc3Cl)c2c(C)c1-c1ccncc1` [Compound 19]: 2.5 µM (≈ 1.1 µg/mL).
As to `Cc1cc2nc(C(=O)NC3CCN(C)CC3)cc(-c3ccccc3Cl)c2c(C)c1-c1ccncc1` [Compound 33], the MIC90 turned out to be 0.8 µM (≈ 0.388 µg/mL).
As for `Cc1cc2nc(C(=O)NO)cc(-c3ccccc3Cl)c2c(C)c1-c1ccncc1` [Compound 17], the MIC90 was found to be 10 µM (≈ 4.04 µg/mL).
On the same count and under the same terms, the figure for `Cc1cc2nc(CNCCO)cc(-c3ccccc3Cl)c2c(C)c1-c1ccncc1` [Compound 6] is 5 µM (≈ 2.09 µg/mL); for `Cc1cc2nc(C(=O)NCC3CCCS(=O)(=O)C3)cc(-c3ccccc3Cl)c2c(C)c1-c1ccncc1` (stereo not drawn) [Compound 21] it is 0.8 µM (≈ 0.427 µg/mL).
On the same count and under the same terms, the same measure for `Cc1cc2nc(CO)cc(-c3ccccc3Cl)c2c(C)c1-c1ccncc1` [Compound 3]: 3.75 µM (≈ 1.41 µg/mL); for `CNC(=O)c1cc(-c2ccccc2Cl)c2c(C)c(-c3ccncc3)c(C)cc2n1` [Compound 13]: 0.8 µM (≈ 0.322 µg/mL).
On the same count and under the same terms, the figure for `Cc1cc2nc(C(=O)NCCN(C)C)cc(-c3ccccc3Cl)c2c(C)c1-c1ccncc1` [Compound 16] is 0.3 µM (≈ 0.138 µg/mL).
Regarding `Cc1cc2nc(NCCO)cc(-c3ccccc3Cl)c2c(C)c1-c1ccncc1` [Compound 9], the MIC90 stood at 3 µM (≈ 1.21 µg/mL).
Same read-out and setting: the figure for `Cc1cc2nc(C(=O)N(C)C)cc(-c3ccccc3Cl)c2c(C)c1-c1ccncc1` [Compound 29] is 20 µM (≈ 8.32 µg/mL); for `Cc1cc2nccc(-c3ccccc3Cl)c2c(C)c1-c1ccncc1` [Compound 1] it is 5 µM (≈ 1.72 µg/mL); for `Cc1cc2nc(C(=O)N3CCOCC3)cc(-c3ccccc3Cl)c2c(C)c1-c1ccncc1` [Compound 32] it is 15 µM (≈ 6.87 µg/mL).
Take `Cc1cc2nc(C(=O)NCC(C)(C)C(=O)O)cc(-c3ccccc3Cl)c2c(C)c1-c1ccncc1` [Compound 28]: the MIC90 is 80 µM (≈ 39 µg/mL).
In the case of `Cc1cc2nc(C(=O)NC(CO)CO)cc(-c3ccccc3Cl)c2c(C)c1-c1ccncc1` [Compound 34], the MIC90 amounted to 1.9 µM (≈ 0.878 µg/mL).
In the case of `Cc1cc2nc(CN(C)C)cc(-c3ccccc3Cl)c2c(C)c1-c1ccncc1` [Compound 5], the MIC90 came to 10 µM (≈ 4.02 µg/mL).

The same assay, now with this note: Mycobacterium tuberculosis, Table 1A, C2 SAR with fluorophenyl; Middlebrook 7H9, 37° C. six days, resazurin fluorescence after 48 hours; read-out: MIC90.
On to `Cc1cc2nc(C(=O)NC[C@@H](O)CO)cc(-c3ccccc3F)c2c(C)c1-c1ccncc1` [Compound 44], for which the MIC90 was 0.6 µM (≈ 0.267 µg/mL).
Still for that read-out and setting: the figure for `Cc1cc2nc(C(=O)N[C@@H](C)CCO)cc(-c3ccccc3F)c2c(C)c1-c1ccncc1` [Compound 42] is 0.16 µM (≈ 0.071 µg/mL); for `Cc1cc2nc(C(=O)NC3CCN(C)C3)cc(-c3ccccc3F)c2c(C)c1-c1ccncc1` (stereo not drawn) [Compound 45] it is 1.25 µM (≈ 0.568 µg/mL).
Same read-out and setting: the same measure for `Cc1cc2nc(C(=O)N[C@H](C)CCO)cc(-c3ccccc3F)c2c(C)c1-c1ccncc1` [Compound 41]: 0.16 µM (≈ 0.071 µg/mL).
On to `Cc1cc2nc(C(=O)N[C@H](C)CO)cc(-c3ccccc3F)c2c(C)c1-c1ccncc1` [Compound 39], for which the MIC90 was 0.6 µM (≈ 0.258 µg/mL).

The assay is the same for the next values; noted with them: Mycobacterium tuberculosis, Table 2, C4 SAR; Middlebrook 7H9, 37° C. six days, resazurin fluorescence after 48 hours; read-out: MIC90.
`Cc1cc2nccc(-c3ccccc3CO)c2c(C)c1-c1ccc(CN2CCOCC2)cc1` [Compound 55]: the MIC90 stood at 2.5 µM (≈ 1.1 µg/mL).
Still for that read-out and setting: the figure for `COc1cccc(-c2ccnc3cc(C)c(-c4ccc(CN5CCOCC5)cc4)c(C)c23)c1Cl` [Compound 53] is 10 µM (≈ 4.73 µg/mL); for `COc1ccncc1-c1ccnc2cc(C)c(-c3ccc(CN4CCOCC4)cc3)c(C)c12` [Compound 59] it is 2.5 µM (≈ 1.1 µg/mL).
Same read-out and setting: the figure for `COc1ncccc1-c1ccnc2cc(C)c(-c3ccc(CN4CCOCC4)cc3)c(C)c12` [Compound 60] is 2.5 µM (≈ 1.1 µg/mL); for `Cc1cc2nccc(-c3ccccc3C(N)=O)c2c(C)c1-c1ccc(CN2CCOCC2)cc1` [Compound 56] it is 20 µM (≈ 9.03 µg/mL); for `Cc1cc(-c2ccnc3cc(C)c(-c4ccc(CN5CCOCC5)cc4)c(C)c23)n(C)n1` [Compound 61] it is over 40 µM.
For the compound `CCN(CC)Cc1ccccc1-c1ccnc2cc(C)c(-c3ccc(CN4CCOCC4)cc3)c(C)c12` [Compound 54], the MIC90 was determined as 2.5 µM (≈ 1.23 µg/mL).

Still in this assay, the particulars now being: Mycobacterium tuberculosis, Table 3, C4 SAR; Middlebrook 7H9, 37° C. six days, resazurin fluorescence after 48 hours; read-out: MIC90.
Consider `CNC(=O)c1cc(N2CCOCC2)c2c(C)c(-c3ccncc3)c(C)cc2n1` [Compound 70], for which the MIC90 amounted to 20 µM (≈ 7.53 µg/mL).
As for `CNC(=O)c1cc(-c2ccccc2Cl)c2c(C)c(-c3ccncc3)c(C)cc2n1` [Compound 13], the MIC90 amounted to 0.8 µM (≈ 0.322 µg/mL).

Still in this assay, the particulars now being: Mycobacterium tuberculosis, Table 4, C6 SAR; Middlebrook 7H9, 37° C. six days, resazurin fluorescence after 48 hours; read-out: MIC90.
As for `Cc1cc2nccc(-c3ccccc3)c2c(C)c1-c1cnco1` [Compound 74], the MIC90 stood at 31 µM (≈ 9.31 µg/mL).
Same read-out and setting: the same measure for `Cc1cc2nccc(-c3ccccc3)c2c(C)c1-c1ccncc1` [Compound 72]: 5 µM (≈ 1.55 µg/mL); for `Cc1cc2nccc(-c3ccccc3)c2c(C)c1-c1cncnc1` [Compound 73]: 40 µM (≈ 12.5 µg/mL).

Staying with this assay, now noted: Mycobacterium tuberculosis, Table 4A, C6 SAR with amide; Middlebrook 7H9, 37° C. six days, resazurin fluorescence after 48 hours; read-out: MIC90.
For `CNC(=O)c1cc(-c2ccccc2F)c2c(C)c(C3=CCC(CN4CCOCC4)CC3)c(C)cc2n1` (stereo not drawn) [Compound 92], the MIC90 was found to be 1.25 µM (≈ 0.61 µg/mL).
The same measure, in the same setting: the same measure for `CNC(=O)c1cc(-c2ccccc2F)c2c(C)c(C3=CCN(S(=O)(=O)N4CCOCC4)CC3)c(C)cc2n1` [Compound 88]: 10 µM (≈ 5.39 µg/mL); for `CNC(=O)c1cc(-c2ccccc2F)c2c(C)c(-c3ccnc(C)c3)c(C)cc2n1` [Compound 84]: 6 µM (≈ 2.4 µg/mL).
Take `CNC(=O)c1cc(-c2ccccc2F)c2c(C)c(C3=CCC(C(=O)O)CC3)c(C)cc2n1` (stereo not drawn) [Compound 87]: the MIC90 stood at 2.5 µM (≈ 1.08 µg/mL).
On to `CNC(=O)c1cc(-c2ccccc2F)c2c(C)c(C3=CCN(C(=O)N4CCOCC4)CC3)c(C)cc2n1` [Compound 90], for which the MIC90 was determined as 5 µM (≈ 2.51 µg/mL).
Still for that read-out and setting: the figure for `CNC(=O)c1cc(-c2ccccc2F)c2c(C)c(-c3cccs3)c(C)cc2n1` [Compound 81] is 3 µM (≈ 1.17 µg/mL); for `CNC(=O)c1cc(-c2ccccc2F)c2c(C)c(-c3ccnc(C(F)(F)F)c3)c(C)cc2n1` [Compound 79] it is 5 µM (≈ 2.27 µg/mL).
As to `CNC(=O)c1cc(-c2ccccc2F)c2c(C)c(-c3cccnc3)c(C)cc2n1` [Compound 85], the MIC90 is 3 µM (≈ 1.16 µg/mL).
For `CNC(=O)c1cc(-c2ccccc2F)c2c(C)c(-c3ccc(CN4CCOCC4)cc3)c(C)cc2n1` [Compound 78], the MIC90 is 0.6 µM (≈ 0.29 µg/mL).

The same assay, now with this note: Mycobacterium tuberculosis, Table 5; Middlebrook 7H9, 37° C. six days, resazurin fluorescence after 48 hours; read-out: MIC90.
As for `CNC(=O)c1cc(C2=CCCCC2)c2c(C)c(-c3ccncc3)c(C)cc2n1` [Compound 102], the MIC90 was 3 µM (≈ 1.11 µg/mL).
Take `CNC(=O)c1cc(N2CCNCC2)c2c(C)c(-c3ccncc3)c(C)cc2n1` [Compound 101]: the MIC90 is over 50 µM.
`CNC(=O)c1cc(C2=CCOCC2)c2c(C)c(-c3ccncc3)c(C)cc2n1` [Compound 99]: the MIC90 worked out at 12.5 µM (≈ 4.67 µg/mL).
Still for that read-out and setting: the same measure for `Cc1cc2nccc(-c3cccnc3)c2c(C)c1-c1ccc(CN2CCOCC2)cc1` [Compound 93]: 1.6 µM (≈ 0.655 µg/mL).
The same measure, in the same setting: the figure for `Cc1cc2nc(C(=O)N[C@@H]3CCC[C@H]3O)cc(-c3ccccc3F)c2c(C)c1-c1ccncc1` [Compound 98] is 0.6 µM (≈ 0.273 µg/mL); for `CNC(=O)c1cc(-c2ccccc2)c2c(C)c(-c3ccncc3)c(C)cc2n1` [Compound 95] it is 0.3 µM (≈ 0.11 µg/mL).

The assay is the same for the next values; noted with them: Mycobacterium tuberculosis, Table 6; Middlebrook 7H9, 37° C. six days, resazurin fluorescence after 48 hours; read-out: MIC90.
For the compound `Cc1cc2nc(C(=O)N[C@@H]3CN(C)C[C@@H]3F)cc(-c3ccnn3C)c2c(C)c1-c1ccncc1` [Compound 106], the MIC90 is 1.6 µM (≈ 0.734 µg/mL).
Same read-out and setting: the figure for `Cc1cc2nc(C(=O)N3CCC(N(C)C)C3)cc(-c3ccccc3Cl)c2c(C)c1-c1ccc(CN2CCOCC2)cc1` (stereo not drawn) [Compound 103] is 0.8 µM (≈ 0.467 µg/mL).

Staying with this assay, now noted: Table 4, C6 SAR; Middlebrook 7H9, 37° C. six days, resazurin fluorescence after 48 hours; read-out: MIC90.
Turning to `Cc1cc2nccc(-c3ccccc3)c2c(C)c1-c1ccc(CN2CCOCC2)cc1` [Compound 47], the MIC90 is reported as 0.45 µM (≈ 0.184 µg/mL).
